The source made the active and inactive calls. No cut-off for these calls is given here.
Assays:
[1] = Inhibition of cell migration in human PD002 cells assessed as wound healing rate at 0.2 uM incubated for 24 hrs by wound healing assay (reference value: 63%); type: functional; parameters: scale not given: the % may be the effect or the level left
[2] = Inhibition of Escherichia coli WecA incubated for 2 hrs using UDP-Glucosamine-C6-FITC substrate by reversed-phase HPLC analysis; parameters: species or system Escherichia coli BL21
CAPAN-1 [3] = experiment: Inhibition of DPAGT1 protein expression in human CAPAN-1 cells at 0.2 uM incubated for 24 hrs by Western blot analysis; type: functional, cell-based
Vero = experiment: Cytotoxicity in African green monkey Vero cells assessed as reduction in cell viability incubated for 72 hrs by MTT assay; type: cell-based; details: Chlorocebus sabaeus
[4] = molecular target: T1, UDP-N-acetylglucosamine--dolichyl-phosphate N-acetylglucosaminephosphotransferase (Homo sapiens) (UniProt Q9H3H5); experiment: Inhibition of DPAGT1 in human PD002 cells assessed as reduction in snail protein expression incubated for 24 hrs by Western blot analysis; type: cell-based
T1 sequence (whole entry): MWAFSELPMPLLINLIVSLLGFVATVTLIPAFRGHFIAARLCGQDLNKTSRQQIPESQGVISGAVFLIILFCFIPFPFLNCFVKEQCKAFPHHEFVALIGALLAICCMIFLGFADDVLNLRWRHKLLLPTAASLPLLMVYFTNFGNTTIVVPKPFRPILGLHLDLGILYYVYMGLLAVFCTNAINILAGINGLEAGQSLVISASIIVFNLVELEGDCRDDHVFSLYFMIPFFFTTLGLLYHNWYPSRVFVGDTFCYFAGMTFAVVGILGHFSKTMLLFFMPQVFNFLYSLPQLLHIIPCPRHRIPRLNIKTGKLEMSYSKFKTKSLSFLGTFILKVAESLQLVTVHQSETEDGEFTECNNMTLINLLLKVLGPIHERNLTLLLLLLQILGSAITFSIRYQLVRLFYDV

[5] = Synergistic cytotoxicity in human PD002 cells assessed as FIC at 0.2 uM incubated for 72 hrs in presence of 0.0049 uM paclitaxel by IncuCyte live cell analysis imaging system based assay; type: functional
[6] = Synergistic cytotoxicity in human PD002 cells assessed as FIC at 0.2 uM incubated for 72 hrs in presence of 0.031 uM paclitaxel by IncuCyte live cell analysis imaging system based assay; type: functional
[7] = Synergistic cytotoxicity in human PD002 cells assessed as FIC at 2 uM incubated for 72 hrs in presence of 0.039 uM paclitaxel by IncuCyte live cell analysis imaging system based assay; type: functional
[8] = Synergistic cytotoxicity in human PD002 cells assessed as FIC at 0.1 uM incubated for 72 hrs in presence of 0.63 uM paclitaxel by IncuCyte live cell analysis imaging system based assay; type: functional
[9] = molecular target: T1, UDP-N-acetylglucosamine--dolichyl-phosphate N-acetylglucosaminephosphotransferase (Homo sapiens); experiment: Inhibition of DPAGT1 in human SiHa cells assessed as reduction in snail protein expression incubated for 24 hrs by Western blot assay; type: cell-based
HCT-116 [10] = experiment: Inhibition of DPAGT1 protein expression in human HCT-116 cells at 0.2 uM incubated for 24 hrs by Western blot analysis; type: functional, cell-based
[11] = Cytotoxicity in human PD002 cells assessed as phase area confluence level at 50 uM incubated for 72 hrs by IncuCyte live cell analysis imaging system based assay (reference value: 70%)
KB = experiment: Cytotoxicity in human KB cells assessed as reduction in cell viability incubated for 72 hrs by MTT assay; type: functional, cell-based
HCT-116 [12] = experiment: Inhibition of DPAGT1 protein expression in human HCT-116 cells at 0.1 to 20 uM incubated for 72 hrs by immunofluorescence assay; details: dose microM 0.1-20, time 72.0 hrs
DLD-1 = experiment: Cytotoxicity in human DLD-1 cells assessed as reduction in cell viability incubated for 72 hrs by MTT assay; type: functional, cell-based; details: DLD-1, 72 h
[13] = molecular target: T1, UDP-N-acetylglucosamine--dolichyl-phosphate N-acetylglucosaminephosphotransferase (Homo sapiens); experiment: Inhibition of DPAGT1 in human PD002 cells assessed as reduction in snail protein expression incubated for 24 hrs by immunofluorescence staining assay; type: cell-based
PD002 [14] = experiment: Inhibition of E-cadherin protein expression in human PD002 cells at 0 to 2 uM incubated for 24 hrs by Western blot analysis; type: functional, cell-based; details: dose microM 0-2, time […]
PD002 [15] = experiment: Inhibition of DPAGT1 protein expression in human PD002 cells at 0.2 uM incubated for 24 hrs by Western blot analysis; type: functional, cell-based
PD002 [16] = experiment: Inhibition of cell migration in human PD002 cells at 0.1 uM incubated for 0.5 hrs by crystal violet staining based Boyden chamber assay; type: functional
[17] = Cytotoxicity in human hTERT-HPNE cells assessed as reduction in cell viability incubated for 72 hrs by MTT assay; type: cell-based
[18] = Synergistic cytotoxicity in human PD002 cells assessed as FIC at 0.1 uM incubated for 72 hrs in presence of […] paclitaxel by IncuCyte live cell analysis imaging system based assay; type: functional
ASPC1 [19] = experiment: Cytotoxicity in human ASPC1 cells assessed as reduction in cell viability incubated for 72 hrs by MTT assay; type: functional, cell-based; details: ASPC1, 72 h
PANC-1 [20] = experiment: Inhibition of DPAGT1 protein expression in human PANC-1 cells at 0.2 uM incubated for 24 hrs by Western blot analysis; type: functional, cell-based
[21] = Synergistic cytotoxicity in human PD002 cells assessed as FIC at 0.2 uM incubated for 72 hrs in presence of 0.020 uM paclitaxel by IncuCyte live cell analysis imaging system based assay; type: functional
[22] = molecular target: T2, UDP-N-acetylglucosamine--dolichyl-phosphate N-acetylglucosaminephosphotransferase (Homo sapiens, UniProt Q9H3H5); experiment: Inhibition of human DPAGT1 expressed in HEK293 (Expi293) cells incubated for 2 hrs using UDP-GlcN-Cg-FITC and alpha-dihydroundecap-renyl phosphate by reversed-phase HPLC analysis; type: cell-based
T2 sequence (Q9H3H5 whole entry): T1 sequence (whole entry)

[23] = Inhibition of N-terminal His9-tagged Methanocaldococcus jannaschii DSM 2661 AglH incubated for 2 hrs using UDP-GlcN-Cg-FITC and alpha-dihydroundecap-renyl phosphate by reversed-phase HPLC analysis
SiHa = experiment: Cytotoxicity in human SiHa cells assessed as reduction in cell viability incubated for 72 hrs by MTT assay; type: functional, cell-based
HCT-116 [24] = experiment: Cytotoxicity in human HCT-116 cells assessed as reduction in cell viability incubated for 72 hrs by MTT assay; type: functional, cell-based; details: HCT-116, 72 h
[25] = Inhibition of cell proliferation in human PD002 cells incubated for 72 hrs; type: functional
PANC-1 [26] = experiment: Cytotoxicity in human PANC-1 cells assessed as reduction in cell viability incubated for 72 hrs by MTT assay; type: functional, cell-based; details: PANC-1, 72 h
ASPC1 [27] = experiment: Inhibition of DPAGT1 protein expression in human ASPC1 cells at 0.2 uM incubated for 24 hrs by Western blot analysis; type: functional, cell-based
CAPAN-1 [28] = experiment: Cytotoxicity in human CAPAN-1 cells assessed as reduction in cell viability incubated for 72 hrs by MTT assay; type: functional, cell-based; details: CAPAN-1, 72 h
[29] = Inhibition of N-terminal 6x-His-tagged Hydrogenivirga-sp. 128-5-R1-1 MraY expressed in Escherichia coli NiCo21(DE3) incubated for 2 hrs by reversed-phase HPLC analysis

Structure (SMILES): CO[C@H]1[C@@H](O)[C@H](n2ccc(=O)[nH]c2=O)O[C@@H]1[C@@H](O[C@H]1OC(C(=O)NCc2ccc(N3CCC(Oc4ccc(OC(F)(F)F)cc4)CC3)cc2)=C[C@H](O)[C@@H]1O)C(N)=O
- Activity [1]: 20%
- IC50 [2]: 0.1 µM
- inhibition (CAPAN-1 [3]): Active
- IC50 (Vero): > 50 µM
- inhibition [4]: Active
- FIC [5]: 0.0096
- FIC [6]: 0.26
- FIC [7]: 0.037
- FIC [8]: 0.5
- inhibition [9]: Active
- inhibition (HCT-116 [10]): Active
- Activity [11]: 10%
- IC50 (KB): 35 µM
- inhibition (HCT-116 [12]): inactive
- IC50 (DLD-1): 25 µM
- inhibition [13]: Active
- inhibition (PD002 [14]): inactive
- inhibition (PD002 [15]): Active
- inhibition (PD002 [16]): Active
- IC50 [17]: > 50 µM
- FIC [18]: 0.13
- IC50 (ASPC1 [19]): 25 µM
- inhibition (PANC-1 [20]): Active
- FIC [21]: 0.021
- IC50 [22]: 0.2 µM
- IC50 [23]: 0.15 µM
- IC50 (SiHa): 15 µM
- IC50 (HCT-116 [24]): 15 µM
- inhibition (INH) [25]: 20%
- IC50 (PANC-1 [26]): 35 µM
- inhibition (ASPC1 [27]): Active
- IC50 (CAPAN-1 [28]): 30 µM
- IC50 [29]: 10.3 µM
